Data on eight molecules can be found in ChEMBL document CHEMBL4052785, “Discovery of (R)-5-(benzo[d][1,3]dioxol-5-yl)-7-((1-(vinylsulfonyl)pyrrolidin-2-yl)methyl)-7H-pyrrolo[2,3-d]pyrimidin-4-amine (B6) as a potent Bmx inhibitor for the treatment of NSCLC” (Bioorg Med Chem Lett, 2017).

By IC50 is commonly meant the point on the concentration scale where inhibition reaches its midpoint. Low readings indicate higher potency, high ones lower potency. A word on the solubility: it is the dissolved amount per volume that the medium holds. Low values mean a poorly soluble substance, high ones a readily soluble substance.

Data set [1] deals with NCI-H1975. The experiment in a line: Antiproliferative activity against human NCI-H1975 cells harboring EGFR L858R/T790M mutant after 72 hrs by MTT assay. As to conditions: NCI-H1975, 72 h. The data set is classed as functional, cell-based. Background: Tetrazolium assays rely on reduction of a dye to a coloured formazan, in cell work by metabolically active cells.
The test system of another data set is A549. The experiment in a line: Antiproliferative activity against human A549 cells harboring wild type EGFR after 72 hrs by MTT assay. The data set is classed as functional, cell-based. Conditions: A549, 72 h.
The subject of a further data set is HCC827. Kind of data set: Antiproliferative activity against human HCC827 cells harboring EGFR Del19 mutant after 72 hrs by MTT assay. The data set is classed as functional, cell-based. As to conditions: HCC827, 72 h.
The nature of data set [2]: Aqueous solubility of the compound at 1 mg. The data set is classed as physicochemical.
Data set [3] deals with NCI-H1975. Kind of data set: Antitumor activity against human NCI-H1975 cells xenografted in nude mouse assessed as tumor growth inhibition at 25 mg/kg administered via oral gavage qd measured every 2 days up to 18 days relative to control. The data set is classed as functional. As to conditions: read-out: TGI. In general terms: In xenograft studies the graft and the host belong to different species.

In brackets after ≈: the same amount, converted by molar mass.

For the molecule `C=CS(=O)(=O)N1CCC[C@@H]1Cn1cc(-c2ccc(Oc3ccccc3)cc2)c2c(N)ncnc21`, the IC50 is 440 nM in the data set on NCI-H1975 [1], 7440 nM in the data set on A549 and 504 nM with HCC827. In addition, the solubility in data set [2] is less than 10 µg/mL.
With `C=CC(=O)N1CCC(Cn2cc(-c3ccc(Oc4ccccc4)cc3)c3c(N)ncnc32)C1` (single isomer, unassigned), the half-maximal inhibitory concentration (IC50) in the data set with NCI-H1975 [1] is 6310 nM; with A549 it was 14200 nM. Also, in data set [2], the solubility was less than 10 µg/mL.
On to `C=CS(=O)(=O)N1CC[C@H](Cn2cc(-c3ccc(Oc4ccccc4)cc3)c3c(N)ncnc32)C1`, for which the results for the IC50 with NCI-H1975 [1], in the data set on A549 and in the data set with HCC827 were 910 nM, 13000 nM and 581 nM, respectively. The solubility in data set [2] was less than 10 µg/mL.
For the molecule `C=CC(=O)N1CCC[C@@H]1Cn1cc(-c2ccc3c(c2)OCO3)c2c(N)ncnc21`, the IC50 stood at 2920 nM with NCI-H1975 [1] and 12900 nM in the data set on A549. In data set [2], the concentration in solution (solubility) came to 100 µg/mL (≈ 255 µM).
On to `C=CC(=O)N1CCC(Cn2cc(-c3ccc4c(c3)OCO4)c3c(N)ncnc32)C1` (single isomer, unassigned), for which the IC50 in the data set on NCI-H1975 [1] was determined as 6300 nM; in the data set with A549, 8240 nM. The molecule further came in with a solubility in data set [2] of 100 µg/mL (≈ 255 µM).
As to `C=CC(=O)N1CCC[C@@H](n2nc(-c3ccc(Oc4ccccc4)cc3)c3c(N)ncnc32)C1` [IBRUTINIB], the inhibition in vivo at 25 mg/kg with NCI-H1975 [3] was found to be 59.6%. For the same molecule, the IC50 is 1270 nM in the data set with NCI-H1975 [1], 21800 nM in the data set with A549 and 39 nM with HCC827. The molecule further returned a solubility in data set [2] of less than 10 µg/mL.
For the molecule `C=CS(=O)(=O)N1CC[C@H](Cn2cc(-c3ccc4c(c3)OCO4)c3c(N)ncnc32)C1`, the IC50 came to 330 nM in the data set on NCI-H1975 [1], 1780 nM with A549 and 16 nM with HCC827. Also, the solubility in data set [2] worked out at 100 µg/mL (≈ 234 µM).
In the case of `C=CC(=O)N1CCC[C@@H]1Cn1cc(-c2ccc(Oc3ccccc3)cc2)c2c(N)ncnc21`, the IC50 is 1920 nM in the data set on NCI-H1975 [1] and 15500 nM with A549. The solubility in data set [2] was less than 10 µg/mL.
